Experimental data taken from BindingDB's records for doi:10.3109/14756369709035816 (R & D, Zambon Group, 1997).

biological target: T1, Neprilysin (Rattus norvegicus, UniProt P07861); experiment: Enzyme Inhibition Assay; conditions: 25 °C
T1 sequence (P07861 whole entry): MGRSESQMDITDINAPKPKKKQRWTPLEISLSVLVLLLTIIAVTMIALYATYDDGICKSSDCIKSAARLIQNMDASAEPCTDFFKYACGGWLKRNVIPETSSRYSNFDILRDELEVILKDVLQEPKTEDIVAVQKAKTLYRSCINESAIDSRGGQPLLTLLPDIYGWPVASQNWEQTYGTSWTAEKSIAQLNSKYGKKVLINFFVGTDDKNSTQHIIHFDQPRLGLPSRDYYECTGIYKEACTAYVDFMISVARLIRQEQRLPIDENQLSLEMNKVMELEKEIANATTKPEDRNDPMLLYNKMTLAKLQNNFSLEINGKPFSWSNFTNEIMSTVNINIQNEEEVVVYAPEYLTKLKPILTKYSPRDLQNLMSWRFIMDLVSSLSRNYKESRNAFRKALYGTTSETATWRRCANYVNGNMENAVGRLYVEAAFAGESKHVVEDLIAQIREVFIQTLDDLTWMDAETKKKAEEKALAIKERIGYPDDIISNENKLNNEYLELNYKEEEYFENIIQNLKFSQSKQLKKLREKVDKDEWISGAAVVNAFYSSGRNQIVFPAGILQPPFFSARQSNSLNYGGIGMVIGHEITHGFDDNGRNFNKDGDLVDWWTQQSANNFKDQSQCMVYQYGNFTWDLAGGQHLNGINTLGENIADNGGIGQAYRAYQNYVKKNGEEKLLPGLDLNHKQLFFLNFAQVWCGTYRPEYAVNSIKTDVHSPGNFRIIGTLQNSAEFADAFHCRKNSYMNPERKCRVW
From the text: Enzyme inhibition assay using neutrol endopeptiase EC 3.4.24.11 (NEP).

Row | SMILES | IC50
1 | O=C(Nc1ccn[nH]1)C(CS)Cc1ccccc1 (configuration not stated) [NEP inhibitor, 6q] | 23 nM
2 | O=C(O)c1cc(NC(=O)C(CS)Cc2cccnc2)cs1 (configuration not stated) [NEP inhibitor, 6l] | 13 nM
3 | O=C(O)c1csc(NC(=O)C(CS)Cc2ccccc2)n1 (configuration not stated) [NEP inhibitor, 6p] | 9 nM
4 | CC(CS)C(=O)Nc1cncc(C(=O)O)c1 (configuration not stated) [NEP inhibitor, 6g] | 60 nM
5 | O=C(O)c1ccnc(NC(=O)C(CS)Cc2ccc3c(c2)OCO3)c1 (configuration not stated) [NEP inhibitor, 6j] | 5.5 nM
6 | O=C(O)c1cncc(NC(=O)C(CS)Cc2ccccc2)c1 (configuration not stated) [NEP inhibitor, 6h] | 5 nM
7 | O=C(Nc1ccccc1)c1ccnc(NC(=O)C(CS)Cc2ccccc2)c1 (configuration not stated) [NEP inhibitor, 6s] | 250 nM

More lines, in order of falling IC50, values ahead:

Row | IC50 | SMILES
8 | 5 nM | CN(C)C(=O)c1ccnc(NC(=O)C(CS)Cc2ccccc2)c1 (configuration not stated) [NEP inhibitor, 6r]
9 | 3 nM | O=C(O)c1ccnc(NC(=O)C(CS)Cc2ccccc2)c1 (configuration not stated) [NEP inhibitor, 6i]
10 | 2 nM | O=C(O)c1cc(NC(=O)C(CS)Cc2ccc(Cl)cc2)c[nH]1 (configuration not stated) [NEP inhibitor, 6n]
11 | 2 nM | O=C(O)c1cc(NC(=O)C(CS)Cc2ccccc2)c[nH]1 (configuration not stated) [NEP inhibitor, 6m]
12 | 2 nM | O=C(O)c1cc(NC(=O)C(CS)Cc2ccccc2)cs1 (configuration not stated) [NEP inhibitor, 6k]
